Assays:
[1] = molecular target: Phosphatidylinositol 4,5-bisphosphate 3-kinase catalytic subunit alpha isoform (Homo sapiens, UniProt P42336); test: Inhibition of PI3Kalpha (unknown origin) using PIP2 as substrate incubated for 1 hr by ADP-Glo assay
[2] = molecular target: Phosphatidylinositol 4,5-bisphosphate 3-kinase catalytic subunit beta isoform (Homo sapiens, UniProt P42338); test: Inhibition of PI3Kbeta (unknown origin) using PIP2 as substrate incubated for 1 hr by ADP-Glo assay
[3] = molecular target: Phosphatidylinositol 4,5-bisphosphate 3-kinase catalytic subunit gamma isoform (Homo sapiens, UniProt P48736); test: Inhibition of PI3Kgamma (unknown origin) using PIP2 as substrate incubated for 1 hr by ADP-Glo assay
[4] = Inhibition of mouse CD3-positive T cell proliferation pre-stimulated with anti-CD3/anti-CD28 followed by compound treatment by flow cytometry
[5] = Inhibition of mouse CD3-positive T cell activation pre-stimulated with anti-CD3/anti-CD28 followed by compound treatment by flow cytometry

Phosphatidylinositol 4,5-bisphosphate 3-kinase catalytic subunit alpha isoform, sequence (P42336 whole entry, canonical isoform): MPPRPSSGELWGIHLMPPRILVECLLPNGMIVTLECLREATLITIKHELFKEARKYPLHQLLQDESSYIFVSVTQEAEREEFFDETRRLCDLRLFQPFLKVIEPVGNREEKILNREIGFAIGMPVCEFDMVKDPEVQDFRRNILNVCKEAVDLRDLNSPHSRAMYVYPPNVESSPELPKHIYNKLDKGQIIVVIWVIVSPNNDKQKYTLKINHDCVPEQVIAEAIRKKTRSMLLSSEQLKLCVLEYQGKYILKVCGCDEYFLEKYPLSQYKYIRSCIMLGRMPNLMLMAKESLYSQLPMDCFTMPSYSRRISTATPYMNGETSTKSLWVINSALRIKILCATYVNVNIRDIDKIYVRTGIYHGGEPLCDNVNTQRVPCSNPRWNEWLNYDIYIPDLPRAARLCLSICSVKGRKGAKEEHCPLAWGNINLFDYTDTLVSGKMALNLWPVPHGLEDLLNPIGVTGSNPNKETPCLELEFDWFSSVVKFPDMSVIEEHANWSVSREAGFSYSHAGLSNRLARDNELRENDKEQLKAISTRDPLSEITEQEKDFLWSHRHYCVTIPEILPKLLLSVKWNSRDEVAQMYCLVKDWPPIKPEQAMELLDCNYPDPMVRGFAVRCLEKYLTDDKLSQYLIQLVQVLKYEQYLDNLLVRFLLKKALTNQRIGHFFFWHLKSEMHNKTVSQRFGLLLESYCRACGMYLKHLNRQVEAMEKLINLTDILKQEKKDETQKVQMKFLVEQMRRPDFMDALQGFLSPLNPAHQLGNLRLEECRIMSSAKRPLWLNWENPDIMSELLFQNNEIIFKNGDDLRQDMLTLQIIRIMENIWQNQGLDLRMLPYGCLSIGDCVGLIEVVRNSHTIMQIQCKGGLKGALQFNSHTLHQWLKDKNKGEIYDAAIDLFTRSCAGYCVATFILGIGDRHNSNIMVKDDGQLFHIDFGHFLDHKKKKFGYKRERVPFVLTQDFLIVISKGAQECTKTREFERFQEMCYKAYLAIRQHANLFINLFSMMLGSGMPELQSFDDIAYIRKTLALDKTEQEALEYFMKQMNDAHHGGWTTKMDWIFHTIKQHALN
Phosphatidylinositol 4,5-bisphosphate 3-kinase catalytic subunit gamma isoform, sequence (P48736 whole entry, canonical isoform): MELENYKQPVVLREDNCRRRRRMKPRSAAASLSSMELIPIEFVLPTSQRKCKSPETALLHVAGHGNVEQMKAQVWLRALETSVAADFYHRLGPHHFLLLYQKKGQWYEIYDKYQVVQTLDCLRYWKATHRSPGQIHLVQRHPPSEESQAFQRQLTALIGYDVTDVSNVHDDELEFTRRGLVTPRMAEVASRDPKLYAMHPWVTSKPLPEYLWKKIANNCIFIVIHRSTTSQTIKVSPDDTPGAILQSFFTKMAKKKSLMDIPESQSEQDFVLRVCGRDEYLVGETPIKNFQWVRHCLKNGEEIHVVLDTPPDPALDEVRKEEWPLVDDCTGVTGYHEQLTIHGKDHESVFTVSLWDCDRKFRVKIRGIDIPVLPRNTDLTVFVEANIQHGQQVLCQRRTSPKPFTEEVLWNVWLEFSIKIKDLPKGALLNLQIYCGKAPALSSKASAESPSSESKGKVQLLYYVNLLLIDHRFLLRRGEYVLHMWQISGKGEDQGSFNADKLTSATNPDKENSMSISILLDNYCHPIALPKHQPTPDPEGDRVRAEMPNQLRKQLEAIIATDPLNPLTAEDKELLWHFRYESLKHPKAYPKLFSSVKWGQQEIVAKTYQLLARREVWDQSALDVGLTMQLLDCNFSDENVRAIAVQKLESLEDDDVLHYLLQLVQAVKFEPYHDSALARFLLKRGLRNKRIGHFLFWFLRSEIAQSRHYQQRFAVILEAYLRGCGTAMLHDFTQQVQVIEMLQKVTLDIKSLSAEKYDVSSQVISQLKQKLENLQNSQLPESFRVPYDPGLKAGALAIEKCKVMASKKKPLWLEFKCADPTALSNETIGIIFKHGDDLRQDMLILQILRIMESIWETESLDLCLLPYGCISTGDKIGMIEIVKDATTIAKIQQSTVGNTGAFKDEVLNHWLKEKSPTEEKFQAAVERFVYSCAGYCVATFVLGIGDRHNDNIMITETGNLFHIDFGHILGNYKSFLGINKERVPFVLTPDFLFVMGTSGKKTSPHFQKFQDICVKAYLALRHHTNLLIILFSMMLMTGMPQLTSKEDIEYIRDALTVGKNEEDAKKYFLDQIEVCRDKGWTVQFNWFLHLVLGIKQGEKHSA
Phosphatidylinositol 4,5-bisphosphate 3-kinase catalytic subunit beta isoform, sequence (P42338 whole entry, canonical isoform): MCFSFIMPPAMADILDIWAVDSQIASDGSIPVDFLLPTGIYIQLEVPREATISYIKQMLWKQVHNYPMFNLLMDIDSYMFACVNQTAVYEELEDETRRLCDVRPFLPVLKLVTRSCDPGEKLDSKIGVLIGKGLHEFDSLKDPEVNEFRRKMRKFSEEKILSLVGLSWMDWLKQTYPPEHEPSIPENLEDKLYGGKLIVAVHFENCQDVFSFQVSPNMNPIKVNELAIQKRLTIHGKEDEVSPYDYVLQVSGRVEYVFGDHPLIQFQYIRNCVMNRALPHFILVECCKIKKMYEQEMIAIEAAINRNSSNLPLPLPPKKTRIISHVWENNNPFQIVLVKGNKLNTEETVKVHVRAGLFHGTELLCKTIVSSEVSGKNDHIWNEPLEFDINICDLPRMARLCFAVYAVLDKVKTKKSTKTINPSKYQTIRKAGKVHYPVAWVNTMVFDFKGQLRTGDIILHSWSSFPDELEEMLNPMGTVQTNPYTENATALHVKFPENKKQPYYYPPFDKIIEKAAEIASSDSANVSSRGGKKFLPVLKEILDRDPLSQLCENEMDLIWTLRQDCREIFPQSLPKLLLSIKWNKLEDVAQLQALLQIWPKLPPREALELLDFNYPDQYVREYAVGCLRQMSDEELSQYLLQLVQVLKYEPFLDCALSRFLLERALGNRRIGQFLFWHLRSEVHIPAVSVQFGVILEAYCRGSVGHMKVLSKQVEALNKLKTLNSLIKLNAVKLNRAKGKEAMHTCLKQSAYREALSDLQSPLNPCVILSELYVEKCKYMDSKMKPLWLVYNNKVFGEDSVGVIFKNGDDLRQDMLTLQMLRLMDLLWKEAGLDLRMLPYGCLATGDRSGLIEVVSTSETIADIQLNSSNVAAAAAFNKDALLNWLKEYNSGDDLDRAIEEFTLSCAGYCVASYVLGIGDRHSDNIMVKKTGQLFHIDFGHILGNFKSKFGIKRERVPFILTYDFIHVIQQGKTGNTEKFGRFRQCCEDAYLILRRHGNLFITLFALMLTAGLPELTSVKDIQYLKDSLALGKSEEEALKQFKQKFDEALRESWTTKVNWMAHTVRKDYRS

Row | SMILES | IC50 [1] [µM] | IC50 [2] [µM] | IC50 [3] [µM] | IC50 [4] [µM] | IC50 [5] [µM]
1 | C[C@H](Nc1nc(N)nc(N)c1C#N)c1cn(-c2cccnc2)c2cc(Cl)cnc12 | 7.03 | 1.66 | > 10 | – | –
2 | CC(Nc1nc(N)nc(N)c1C#N)c1cn(-c2cccnc2)c2cc(Cl)cnc12 (stereo unspecified) | > 10 | > 10 | > 10 | – | –
3 | C[C@@H](Nc1nc(N)nc(N)c1C#N)c1cn(-c2cccnc2)c2cc(Cl)cnc12 (racemic) | > 10 | 2.36 | > 10 | – | –
4 | CC[C@H](Nc1ncnc2[nH]cnc12)c1nc2cccc(F)c2c(=O)n1-c1ccccc1 [IDELALISIB] | – | – | – | 8.97 | > 10

Source: ChEMBL document CHEMBL5506056, “Discovery of Novel Azaindoles as Potent and Selective PI3Kδ Inhibitors for Treatment of Multiple Sclerosis” (J Med Chem, 2024)
